Results from ChEMBL document CHEMBL4017479, “Design, synthesis and anticancer activity of novel nopinone-based thiosemicarbazone derivatives” (Bioorg Med Chem Lett, 2017).

Experiments:
SMMC-7721 = assay: Cytotoxicity against human SMMC7721 cells after 72 hrs by MTT assay; type: functional, cell-based; conditions: SMMC-7721, 72 h
HeLa = assay: cells; conditions: Homo sapiens, 72 h
Description: Cytotoxicity against human HeLa cells after 72 hrs by MTT assay

[1] = Cytotoxicity against HLF1 cells after 72 hrs by MTT assay; type: functional, cell-based; conditions: Homo sapiens, HLF1, 72 h
MDA-MB-231 = assay: cells; conditions: Homo sapiens, MDA-MB-231, 72 h
Description: Cytotoxicity against human MDA-MB-231 cells after 72 hrs by MTT assay

Q: Which IC50 (SMMC-7721) does the source give for `COc1cc([C@@H]2c3cc4c(cc3[C@@H](O[C@@H]3O[C@@H]5CO[C@@H](C)O[C@H]5[C@H](O)[C@H]3O)[C@H]3COC(=O)[C@H]23)OCO4)cc(OC)c1O` [ETOPOSIDE] here?
A: The IC50 was 40.4 µM.

Q: What about the IC50 (HeLa) of the same molecule?
A: The IC50 was 7.89 µM.

Q: What about the IC50 [1] of the same molecule?
A: Its IC50 is > 40 µM.

Q: And the IC50 (MDA-MB-231)?
A: Its IC50 is 29.3 µM.
